Positions of bridges follow the written chain, without caps; N, C: chain ends. Residues, ends and D or L forms follow the SMILES beside them.
How the values were obtained:
Solubility = type: physicochemical
sepsis = details: antibiotic-treated control group; cited from earlier work

Row | solubility (Solubility) [mg/mL] | water solubility and bioavailability relative to SN50 peptide (Solubility; vs first generation NTCI (SN50 peptide)) [times] | Compound | survival with meropenem alone (sepsis) [%]
1 | ≥ 100 | 8 | CSCC[C@@H]1NC(=O)[C@H](CC(C)C)NC(=O)[C@H](CCCCN)NC(=O)[C@H](CCC(N)=O)NC(=O)[C@H](CCCNC(=N)N)NC(=O)[C@H](CCCCN)NC(=O)[C@H](CCCNC(=N)N)NC(=O)[C@H](CCC(N)=O)NC(=O)[C@H](C(C)C)NC(=O)[C@@H](NC(=O)[C@@H]2CCCN2C(=O)[C@H](C)NC(=O)[C@H](CC(C)C)NC(=O)[C@H](CC(C)C)NC(=O)[C@H](C)NC(=O)[C@H](CC(C)C)NC(=O)[C@H](CC(C)C)NC(=O)[C@@H](NC(=O)[C@H](C)NC(=O)[C@@H]2CCCN2C(=O)[C@H](CC(C)C)NC(=O)[C@H](CC(C)C)NC(=O)[C@H](C)NC(=O)[C@@H](NC(=O)[C@H](C)NC(=O)[C@H](C)N)C(C)C)C(C)C)CSSC[C@@H](C(=O)O)NC(=O)[C@@H]2CCCN2C1=O [cSN50.1] (H-AAVALLPAVLLALLAPCVQRKRQKLMPC-OH; disulfide 17-28) | 
2 |  |  | C[C@@H](O)[C@H]1C(=O)N2C(C(=O)O)=C(S[C@@H]3CN[C@H](C(=O)N(C)C)C3)[C@H](C)[C@H]12 [meropenem] | 30

— patent US20260317388A1, “SELECTIVE NUCLEAR BLOCKADE FOR THE TREATMENT OF SEPSIS” (priority 2023, published 2026)
